Reference: patent publication US8906869B2 (University of South Florida, priority 2007, dated 2014)

Legend:
miR-214 = experiment: qRT-PCR of miR-214 expression after antisense 2'-O-methyl oligonucleotide transfection; type: cell-based, human; conditions: A2780CP cells, 150 pMol per well, 72 h transfection
Method: (§1) FIG. 4. […] (B) MTT assay. […] (C) Flow cytometry. Indicated cells were treated with cisplatin or DMSO for 12 h and the subG1 population was identified by flow cytometry.
Expression of miRNAs was also analysed by RNase protection or mirVana qRT-PCR miRNA detection assay. For RNase protection assay, enriched small RNA was purified using the miRVana miRNA isolation Kit (Ambion). […] Probe hybridization and RNase protection were then carried out using the mirVana™ miRNA detection kit (Ambion) according to manufacturer's instructions. After hybridization and RNase treatment, the double-strand products were resolved in a 15% polyacrylamide 8 M urea denaturing gel and visualized using phospho imaging and autoradiography. mirVanaqRT-PCR was performed according to the manufacturer's protocol (Ambion). PCR products were analyzed by electrophoresis, on a 7.5% polyacrylamide gel in 0.5×TBE and visualized by ethidium bromide staining.
2′-O-methyl (2-O-me) oligoribonucleotides were synthesized by Integrated DNA Technologies. […] […]-3′ (SEQ ID NO: 5) and 5′-[…]-3′ (SEQ ID NO: 6). 2′-O-me-scrambled miR (5′-[…]-3′) (SEQ ID NO: 7) was used as a control. Cells were grown in 6-well plate ([…]) for 24 hand transfected with 150 pMol of 2′-O-me oligoribonucleotides per well using Lipofectamine 2000. RNA and protein were extracted after 72 h transfection.

A2780CP cells = experiment: MTT cell viability and flow cytometry apoptosis in A2780CP cells; type: cell-based, human
Method: as §1
The cells transfected with 2′-O-methyl-scramble-miR were used as control. […] Further, the cells were treated with cisplatin or vehicle DMSO.

Akt = experiment: Immunoblotting of phosphorylation of Akt and Akt substrates in A2780CP cells after knockdown of miR-214; type: cell-based, human; conditions: 150 pM/well, 72 h
Method: (§2) PTEN mRNA level was measured by RT-PCR (panel 8). U6 (panel 7) and GAPDH (bottom panel) were used for controls. […] Anti-mi[…] and scramble 2'-O-methyl oligonucleotide were used as controls. After incubation of 72 h, cells were lysed and immunoblotted with indicated antibodies (C). […] Following 36 h incubation, cells were subjected to luciferase assay. The data are the means of three independent experiments, and error bars indicate standard deviations. (F) Representative tumor and normal tissue lysates were analyzed by Western blot with indicated antibodies (panels 1 and 2). […] U6 was used as a control (bottom panel). […] Cells were grown in 6-well plate ([…]) for 24 hand transfected with 150 pMol of 2'-O-me oligoribonucleotides per well using Lipofectamine 2000. RNA and protein were extracted after 72 h transfection. […] The cells transfected with pcDNA3.[…][…]-Togo vector alone and pcDNA3.[…][…]-Topo-miR-199a* were used as controls. […]). […] PTEN protein was examined in a same series of normal ovary and primary ovarian tumor specimens for expression of miRNAs (FIG. 2F).

PTEN [1] = experiment: Immunoblotting of PTEN protein in A2780CP cells after knockdown of miR-214; type: cell-based, human; conditions: 150 pM/well, 72 h
Method: as §2

PTEN [2] = conditions: ovarian cancer, reference 25; cited from earlier work

Compound	level of miR-214 (miR-214)	sensitization to cisplatin-induced apoptosis (A2780CP cells; cisplatin 20 uM, MTT and flow cytometry)	reduction of cell survival (A2780CP cells; knockdown of miR-214 alone, cell viability analysis)	phosphorylation levels of Akt and Akt substrates GSK3β and p70S6K (Akt)	protein level of PTEN (PTEN [1])	PTEN protein expression (PTEN [2])
2′-O-methyl-anti-miR-214: antisense 2′-O-methyl oligoribonucleotide targeting miR-214, 5′-CUGCCUGUCUGUGCCUGCUGU-3′ (SEQ ID NO: 5) (all 2'-O-methyl, backbone not given here)	significantly decreased	considerably sensitized A2780CP cells to cisplatin-induced apoptosis	about 20%	decreased	increased the protein level of PTEN	
Nc1ncn([C@H]2C[C@H](O)[C@@H](CO)O2)c(=O)n1 [5-aza-2′ deoxycytidine]						failed to restore PTEN protein expression
